A short description of data set [1]: Metabolic stability of liver microsomes in vitro. It counts as in vitro ADME, cynomolgus monkey. As to conditions: Monkey liver microsomes 0.5 mg/mL, compound 1 μM. How it is done: (§1) SD rat, mouse, beagle, cynomolgus monkey and human microsomes were purchased from Corning, Xenotech or BioIVT and stored in a −80° C. freezer.
(§2) 1.2 Nicotinamide adenine dinucleotide phosphate, reduced (NADPH), supplier: Chem-impex international, catalog number: 00616.
(§3) 1.3 Control compounds: testosterone, diclofenac, propafenone.
(§4) Stock solution: 10 mM DMSO solution.
(§5) Working concentration preparation: 100% acetonitrile diluted to 100 μM (organic phase content: 99% ACN, 1% DMSO).
(§6) Prepare two 96-well incubation plates, which were named T60 incubation plate and NCF60 incubation plate, respectively.
(§7) 445 μL of microsomal working solution (liver microsomal protein concentration of 0.56 mg/mL) was added to the T60 incubation plate and NCF60 incubation plate, respectively, and then the above incubation plates were preincubated in a 37° C. water bath for about 10 minutes.
(§8) After the preincubation, 5 μL of test substance or working solution of control compound were added to the T60 incubation plate and NCF60 incubation plate, respectively, and mixed well. The reaction was initiated by adding 50 μL of potassium phosphate buffer to each well of the NCF60 incubation plate; 180 μL of termination solution (acetonitrile solution containing 200 ng/mL tolbutamide and 200 ng/mL labetalol) and 6 μL of NADPH regeneration system working solution were added to the TO termination plate, and 54 μL of sample was removed from the T60 incubation plate to the TO termination plate (TO sample generation). The reaction was initiated by adding 44 μL NADPH regeneration system working solution to each well of the T60 incubation plate. 54 μL of microsomal working solution, 6 μL of NADPH regeneration system working solution and 180 μL of termination solution were added only to the blank plate. Therefore, in the samples of the test or control compounds, the final reaction concentration of compound, testosterone, diclofenac and propafenone was 1 μM, the concentration of liver microsomes was 0.5 mg/mL, and the final concentration of DMSO and acetonitrile in the reaction system were 0.01% (v/v) and 0.99% (v/v), respectively.
(§9) After incubation for an appropriate time (e.g. 5, 10, 20, 30 and 60 minutes), 180 μL of termination solution (acetonitrile solution containing 200 ng/mL tolbutamide and 200 ng/mL labetalol) was added to the sample well of each termination plate, respectively, and then 60 μL of sample was removed from the T60 incubation plate to terminate the reaction.
(§10) All sample plates were shaken well and centrifuged at 3220×g for 20 minutes, then 80 μL of supernatant per well was diluted into 240 μL of purified water for liquid chromatography tandem mass spectrometry analysis.
(§11) All samples were injected for analysis.
For orientation: Microsomes from liver hold many membrane-bound enzymes, among them those of drug oxidation.

Data set [2] is described as follows: Metabolic stability of liver microsomes in vitro. It counts as in vitro ADME, SD rat. The following applies: Rat liver microsomes 0.5 mg/mL, compound 1 μM; for CLint scaled at 1 μM: Sprague-Dawley. Here is the method: as §1, §2, §3, §4, §5, §6, §7, §8, §9, §10, §11
Data set [3] concerns the target T1, VEGFR2 (Homo sapiens, UniProt P35968).
T1 construct: purchased Reaction Biology Corp
Briefly: 33P isotope-labeled kinase activity assay (Reaction Biology Corp). It counts as biochemical. The following applies: 33P-ATP at Km concentration. Here is the method:
(§12) The ^33P isotope-labeled kinase activity assay (Reaction Biology Corp) was used to determine the IC50 value to evaluate the inhibitory ability of the test compounds to Axl, c-Kit, Mer, DDR2, VEGFR1, VEGFR2, VEGFR3, TrkA, and FLT3.
(§13) Buffer conditions: 20 mM hydroxyethylpiperazine […] (Hepes) (pH 7.5), 10 mM MgCl2, 1 mM ethylene glycol bisaminoethyl ether tetraacetic acid (EGTA), 0.02% polyoxyethylene dodecane Ether (Brij35), 0.02 mg/ml BSA, 0.1 mM Na3VO4, 2 mM dithiothreitol (DTT), 1% DMSO.
(§14) Compound Treatment: Test compounds were dissolved in 100% DMSO and diluted serially to a specific concentration with DMSO by Integra Viaflo Assist.
(§15) Test procedure: The substrate was dissolved in freshly prepared buffer, the tested kinase was added and gently mixed well. The DMSO solution containing the test compound was added to the above well mixed reaction solution using acoustic technique (Echo 550) and incubated at room temperature for […]. The compound concentrations in the reaction solution were 3 μM, 1 μM, 0.333 μM, 0.111 μM, 0.0370 μM, 0.0123 μM, 4.12 nM, 1.37 nM, 0.457 nM, 0.152 nM. After 15 minutes of incubation, ^33P-ATP (activity 0.01 μCi/μL, Km concentration) was added to start the reaction. The reaction was carried out at room temperature for 120 minutes, then radioactivity was detected by filter binding method. The kinase activity data were expressed by comparison between the kinase activity containing the test compound and the kinase activity of the blank group (containing DMSO only), and the IC50 values were obtained by curve fitting using Prism4 software (GraphPad), and the experimental results are shown in Table 1.

Data set [4] concerns the target T2, DDR2 (Homo sapiens, UniProt Q16832).
T2 construct: purchased Reaction Biology Corp
T2 sequence (Q16832 22-855): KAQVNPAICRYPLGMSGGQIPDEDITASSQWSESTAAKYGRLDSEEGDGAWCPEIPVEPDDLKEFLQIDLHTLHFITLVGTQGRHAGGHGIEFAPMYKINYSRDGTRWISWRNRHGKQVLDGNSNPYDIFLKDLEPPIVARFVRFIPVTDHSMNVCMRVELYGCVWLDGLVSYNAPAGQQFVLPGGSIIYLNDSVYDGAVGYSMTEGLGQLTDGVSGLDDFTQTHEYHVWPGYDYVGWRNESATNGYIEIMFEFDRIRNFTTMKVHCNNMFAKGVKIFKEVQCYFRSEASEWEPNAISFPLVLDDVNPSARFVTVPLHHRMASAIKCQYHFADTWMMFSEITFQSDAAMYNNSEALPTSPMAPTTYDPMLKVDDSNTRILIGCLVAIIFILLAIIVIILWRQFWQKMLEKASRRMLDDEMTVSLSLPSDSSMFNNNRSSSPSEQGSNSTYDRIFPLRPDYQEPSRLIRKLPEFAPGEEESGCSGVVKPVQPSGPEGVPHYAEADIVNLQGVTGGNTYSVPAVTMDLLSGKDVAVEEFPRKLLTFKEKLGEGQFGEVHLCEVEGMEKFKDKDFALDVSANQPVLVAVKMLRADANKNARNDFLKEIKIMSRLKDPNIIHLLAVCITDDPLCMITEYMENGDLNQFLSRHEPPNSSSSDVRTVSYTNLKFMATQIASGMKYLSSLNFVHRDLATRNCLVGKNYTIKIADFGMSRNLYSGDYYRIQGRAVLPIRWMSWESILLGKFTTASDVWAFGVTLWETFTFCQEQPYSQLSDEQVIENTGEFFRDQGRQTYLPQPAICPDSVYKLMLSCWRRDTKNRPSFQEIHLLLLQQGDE
Described as above. It counts as biochemical. The following applies: 33P-ATP at Km concentration. How it is done: as §12, §13, §14, §15

Data set [5] deals with T3, VEGFR1 (Homo sapiens, UniProt P17948).
T3 construct: purchased Reaction Biology Corp
T3 sequence (P17948 27-1338): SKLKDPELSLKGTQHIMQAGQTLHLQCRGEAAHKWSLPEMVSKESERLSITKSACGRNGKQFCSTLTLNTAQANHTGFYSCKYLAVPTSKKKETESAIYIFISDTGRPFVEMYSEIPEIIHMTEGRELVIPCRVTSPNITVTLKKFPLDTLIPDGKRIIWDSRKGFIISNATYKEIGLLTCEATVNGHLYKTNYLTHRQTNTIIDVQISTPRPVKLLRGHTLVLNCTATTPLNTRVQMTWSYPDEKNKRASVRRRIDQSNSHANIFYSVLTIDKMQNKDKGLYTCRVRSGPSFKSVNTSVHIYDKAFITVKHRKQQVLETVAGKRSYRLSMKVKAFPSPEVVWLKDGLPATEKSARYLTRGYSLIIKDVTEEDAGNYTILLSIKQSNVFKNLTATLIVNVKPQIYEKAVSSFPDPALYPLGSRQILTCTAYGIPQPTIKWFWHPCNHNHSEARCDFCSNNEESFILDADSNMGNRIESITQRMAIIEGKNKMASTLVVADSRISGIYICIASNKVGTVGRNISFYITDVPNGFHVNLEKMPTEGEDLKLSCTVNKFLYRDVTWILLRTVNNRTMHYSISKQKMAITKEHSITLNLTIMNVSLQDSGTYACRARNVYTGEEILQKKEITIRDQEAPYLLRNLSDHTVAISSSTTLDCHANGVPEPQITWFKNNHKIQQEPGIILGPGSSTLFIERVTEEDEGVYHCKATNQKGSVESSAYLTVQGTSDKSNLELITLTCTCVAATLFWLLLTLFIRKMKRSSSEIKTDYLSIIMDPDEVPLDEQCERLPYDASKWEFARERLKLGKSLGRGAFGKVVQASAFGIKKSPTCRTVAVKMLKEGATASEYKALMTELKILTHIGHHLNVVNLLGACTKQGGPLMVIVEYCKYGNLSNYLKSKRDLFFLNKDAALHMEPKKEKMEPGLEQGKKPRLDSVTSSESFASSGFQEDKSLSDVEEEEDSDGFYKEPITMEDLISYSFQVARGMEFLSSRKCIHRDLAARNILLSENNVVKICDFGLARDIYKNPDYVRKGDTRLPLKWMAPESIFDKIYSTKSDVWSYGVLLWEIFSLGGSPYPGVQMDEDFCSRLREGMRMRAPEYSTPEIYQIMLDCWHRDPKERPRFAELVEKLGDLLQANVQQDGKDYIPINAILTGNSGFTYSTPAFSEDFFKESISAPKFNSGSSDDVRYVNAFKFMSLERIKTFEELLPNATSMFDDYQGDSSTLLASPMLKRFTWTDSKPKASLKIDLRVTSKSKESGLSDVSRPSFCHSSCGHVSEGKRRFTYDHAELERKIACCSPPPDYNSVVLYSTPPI
Described as above. The format is biochemical. As to conditions: 33P-ATP at Km concentration. Here is the method: as §12, §13, §14, §15

In data set [6] the target is T4, VEGFR3 (Homo sapiens, UniProt P35916).
T4 construct: purchased Reaction Biology Corp
T4 sequence (P35916 25-1363): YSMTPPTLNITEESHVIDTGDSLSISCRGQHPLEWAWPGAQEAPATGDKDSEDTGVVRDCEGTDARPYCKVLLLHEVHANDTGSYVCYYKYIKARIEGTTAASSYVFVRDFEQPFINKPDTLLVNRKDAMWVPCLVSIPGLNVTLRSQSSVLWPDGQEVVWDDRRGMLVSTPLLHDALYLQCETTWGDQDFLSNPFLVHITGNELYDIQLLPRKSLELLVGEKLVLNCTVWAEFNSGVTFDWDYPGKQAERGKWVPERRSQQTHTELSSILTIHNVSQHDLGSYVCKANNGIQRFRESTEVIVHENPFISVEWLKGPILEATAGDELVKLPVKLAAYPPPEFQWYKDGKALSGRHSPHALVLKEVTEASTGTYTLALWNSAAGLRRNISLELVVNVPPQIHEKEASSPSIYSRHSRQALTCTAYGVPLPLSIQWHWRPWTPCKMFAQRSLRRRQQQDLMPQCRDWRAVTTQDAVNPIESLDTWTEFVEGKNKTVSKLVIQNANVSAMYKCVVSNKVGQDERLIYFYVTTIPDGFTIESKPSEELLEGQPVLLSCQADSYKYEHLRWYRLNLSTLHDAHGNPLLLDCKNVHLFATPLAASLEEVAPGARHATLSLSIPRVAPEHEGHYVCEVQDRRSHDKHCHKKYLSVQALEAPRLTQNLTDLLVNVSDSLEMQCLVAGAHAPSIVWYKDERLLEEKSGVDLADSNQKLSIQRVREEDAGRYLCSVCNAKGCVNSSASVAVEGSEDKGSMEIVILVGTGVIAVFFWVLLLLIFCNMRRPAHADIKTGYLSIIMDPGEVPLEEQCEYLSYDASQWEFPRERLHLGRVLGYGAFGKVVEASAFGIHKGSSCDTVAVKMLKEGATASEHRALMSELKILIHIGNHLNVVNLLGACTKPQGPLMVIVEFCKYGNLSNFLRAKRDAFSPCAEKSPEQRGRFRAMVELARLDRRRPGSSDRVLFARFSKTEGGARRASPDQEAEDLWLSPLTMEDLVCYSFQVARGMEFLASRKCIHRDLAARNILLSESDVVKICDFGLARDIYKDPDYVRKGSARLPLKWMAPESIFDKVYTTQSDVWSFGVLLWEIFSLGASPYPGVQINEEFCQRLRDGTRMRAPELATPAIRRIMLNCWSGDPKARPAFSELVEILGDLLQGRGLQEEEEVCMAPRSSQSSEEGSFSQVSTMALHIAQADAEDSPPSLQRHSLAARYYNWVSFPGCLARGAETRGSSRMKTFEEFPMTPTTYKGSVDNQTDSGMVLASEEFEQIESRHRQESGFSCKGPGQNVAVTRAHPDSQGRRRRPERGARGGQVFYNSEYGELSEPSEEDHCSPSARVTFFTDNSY
Described as above. The format is biochemical. The following applies: 33P-ATP at Km concentration. How it is done: as §12, §13, §14, §15

Data set [7] is described as follows: Metabolic stability of liver microsomes in vitro. The format is in vitro ADME. The following applies: compound 1 μM. Here is the method: as §1, §2, §3, §4, §5, §6, §7, §8, §9, §10, §11
Data set [8] in a line: Metabolic stability of liver microsomes in vitro. It counts as in vitro ADME, beagle. As to conditions: Dog liver microsomes 0.5 mg/mL, compound 1 μM; for CLint scaled at 1 μM: beagle. Here is the method: as §1, §2, §3, §4, §5, §6, §7, §8, §9, §10, §11
Data set [9] can be described thus: Pharmacokinetic evaluation in rats after oral administration. As to conditions: Sprague-Dawley, plasma, 5 mg/kg, SD rat (male), 5 mpk. The format is in vivo. Here is the method:
Testing the pharmacokinetic properties of the compounds of the present disclosure in rats.
The pharmacokinetic characteristics of the compounds in rodents after oral administration were tested by standard protocols. In the experiment, the candidate compounds were formulated into a clarified solution and given to rats for oral administration. The vehicle was 10% NMP/40% PEG400/[…]. Whole blood samples were collected within 24 hours (0.0833, 0.25, 0.5, 1, 2, 4, 6, 8, 24 h), and all blood samples were added to the plastic centrifuge tubes pre-labeled with 0.5 M K2-EDTA anticoagulant.

Setting [10] is: Human liver microsomes 0.5 mg/mL.
The mark [11] stands for this setting: Mouse liver microsomes 0.5 mg/mL.

Where a name gives a salt, the structure may show the parent alone.

T1 sequence (P35968 20-1356): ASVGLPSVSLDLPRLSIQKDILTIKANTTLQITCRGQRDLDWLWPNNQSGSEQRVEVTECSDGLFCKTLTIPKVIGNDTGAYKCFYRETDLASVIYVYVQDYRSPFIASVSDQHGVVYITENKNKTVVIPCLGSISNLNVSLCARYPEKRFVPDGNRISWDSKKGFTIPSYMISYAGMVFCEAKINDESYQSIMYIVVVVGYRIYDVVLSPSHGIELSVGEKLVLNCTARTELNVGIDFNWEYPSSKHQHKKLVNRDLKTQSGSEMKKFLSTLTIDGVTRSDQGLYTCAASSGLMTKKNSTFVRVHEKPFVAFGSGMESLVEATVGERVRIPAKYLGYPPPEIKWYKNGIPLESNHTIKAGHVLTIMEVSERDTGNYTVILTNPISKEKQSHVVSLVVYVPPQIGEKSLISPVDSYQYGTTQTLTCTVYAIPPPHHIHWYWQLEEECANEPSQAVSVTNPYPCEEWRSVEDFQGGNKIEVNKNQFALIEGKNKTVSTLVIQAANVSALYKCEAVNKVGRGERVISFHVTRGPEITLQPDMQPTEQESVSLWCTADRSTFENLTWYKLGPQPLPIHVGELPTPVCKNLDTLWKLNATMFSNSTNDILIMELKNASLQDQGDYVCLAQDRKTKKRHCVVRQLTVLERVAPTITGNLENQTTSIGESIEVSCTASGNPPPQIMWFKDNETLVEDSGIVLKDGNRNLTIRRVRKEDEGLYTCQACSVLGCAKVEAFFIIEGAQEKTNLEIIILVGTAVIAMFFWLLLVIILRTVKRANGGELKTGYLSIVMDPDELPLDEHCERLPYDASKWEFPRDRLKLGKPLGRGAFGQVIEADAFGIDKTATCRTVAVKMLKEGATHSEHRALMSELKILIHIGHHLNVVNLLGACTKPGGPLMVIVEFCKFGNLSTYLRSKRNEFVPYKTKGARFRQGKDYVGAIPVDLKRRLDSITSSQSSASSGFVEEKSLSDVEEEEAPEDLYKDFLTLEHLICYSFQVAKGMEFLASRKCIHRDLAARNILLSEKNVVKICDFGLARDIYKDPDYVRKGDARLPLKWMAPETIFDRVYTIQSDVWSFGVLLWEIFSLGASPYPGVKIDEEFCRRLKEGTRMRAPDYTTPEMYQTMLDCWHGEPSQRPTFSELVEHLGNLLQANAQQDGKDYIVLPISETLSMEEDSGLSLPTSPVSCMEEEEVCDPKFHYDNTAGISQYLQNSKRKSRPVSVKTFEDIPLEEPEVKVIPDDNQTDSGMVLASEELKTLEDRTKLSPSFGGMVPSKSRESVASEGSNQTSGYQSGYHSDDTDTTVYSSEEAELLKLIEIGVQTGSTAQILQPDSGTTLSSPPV

As a reminder, the CLint scaled is the rate of metabolic loss divided by the concentration. A word on the IC50: it is the concentration needed to halve the response being measured. With `[2H]C([2H])([2H])OC([2H])([2H])CNCc1ccc(-c2cc3nccc(Oc4ccc(NC(=O)C5(C(=O)Nc6ccc(F)cc6)CC5)cc4F)c3s2)nc1` [Hydrochloride of 002], the CLint scaled at 1 μM is 19.7 mL/min/kg in [1]; 78.1 mL/min/kg in data set [2]; less than 8.6 mL/min/kg in data set [7] (setting [10]); 301 mL/min/kg in data set [7] (setting [11]); 139 mL/min/kg in data set [8]. The 60 min remaining in data set [1] worked out at 59.7%; in data set [2] it was 26.2%; in data set [7] (setting [10]) it was 96.4%; in data set [7] (setting [11]), 11.3%; in data set [8] it was 5.4%. Moreover, the IC50 in data set [3] stood at 2.75 nM; in data set [4] it was 1.14 nM; in data set [5], 7.16 nM; in data set [6] it was 2.13 nM.

The AUC(0-t) is exposure summed from dosing to a finite time, without extrapolation to infinity. As a reminder, the Cmax is the peak of the concentration-time curve. What is called Tmax is the time at which the peak concentration occurs. For the compound `COCCNCc1ccc(-c2cc3nccc(Oc4ccc(NC(=O)C5(C(=O)Nc6ccc(F)cc6)CC5)cc4F)c3s2)nc1` [Sitravatinib, reference compound], the AUC(0-t) in [9] came out at 4.79 µM·h. This compound gave a Cmax in data set [9] of 801 nM. In data set [9], the Tmax came out at 3 h. In addition, the CLint scaled at 1 μM in [1] worked out at 42.8 mL/min/kg; in [2], 192 mL/min/kg; in data set [7] (setting [10]), 10.6 mL/min/kg; in data set [7] (setting [11]) it was 460 mL/min/kg; in data set [8], 172 mL/min/kg. In addition, the 60 min remaining in data set [1] was found to be 38.5%; in [2], 4.2%; in data set [7] (setting [10]) it was 71.5%; in data set [7] (setting [11]), 3.30%; in [8], 2.6%.

`[2H]C([2H])([2H])OCCNCc1ccc(-c2cc3nccc(Oc4ccc(NC(=O)C5(C(=O)Nc6ccc(F)cc6)CC5)cc4F)c3s2)nc1` [Trifluoroacetate of 001] yielded an AUC(0-t) in data set [9] of 6.65 µM·h. In addition, the Cmax in [9] amounted to 930 nM. The Tmax in data set [9] stood at 1.25 h. Further, the CLint scaled at 1 μM is 22.5 mL/min/kg in [1]; 71.3 mL/min/kg in data set [2]; less than 8.6 mL/min/kg in data set [7] (setting [10]); 321 mL/min/kg in data set [7] (setting [11]); 144 mL/min/kg in data set [8]. The 60 min remaining in data set [1] was found to be 55.9%; in [2], 28.6%; in [7] (setting [10]) it was 87.1%; in [7] (setting [11]) it was 9.5%; in [8] it was 4.9%. The concentration for half-maximal inhibition (IC50) is 2.16 nM in data set [3], 0.79 nM in data set [4], 10.5 nM in data set [5] and 2.82 nM in data set [6].
